Consider 4 compounds from patent US20150190404A1, “TREATING SEIZURES USING ICE INHIBITORS” (Vertex Pharmaceuticals Incorporated, priority 2004, published 2015).

Experiment [1] relates to kainic acid-induced seizures. Briefly: Kainic acid-induced EEG seizures, compound given intracerebroventricularly (Example 1). It is filed as in vivo, male adult Sprague-Dawley rats. Particulars: individual rats, 25 μg/4 μl icv. Here is the method:
An experimental model of seizures in male adult Sprague-Dawley rats was induced by unilateral microinjection of kainic acid (40 ng in 0.5 μl) in the dorsal hippocampus of freely-moving rats using chronically-implanted cannulae and electrodes. Briefly, animals were deeply anesthetized using Equithesin (1% […] and 4% chloral hydrate; 3 ml/kg, i.p.). Bipolar nichrome wire insulated electrodes (60 μm) were implanted bilaterally into the dentate gyrus of the dorsal hippocampus (septal pole), and a guide cannula (22 gauge) was unilaterally positioned on top of the dura and glued to one of the depth electrodes for the intrahippocampal injection of kainic acid. The coordinates from bregma for implantation of the hippocampal electrodes were (in mm: nose bar -2.5, AP -3.5, L ±2.4 and 3 below dura mater). An additional guide cannula was unilaterally positioned on top of the dura mater for intracerebroventricular injection of compounds (in mm, nose bar -2.5; AP -1; L +1.5). A ground lead was positioned over the nasal sinus and two screw electrodes were placed bilaterally over the parietal cortex. The electrodes were connected to a multipin socket (March Electronics, NY) and, together with the injection cannula, were secured to the skull by acrylic dental cement.

In experiment [2] the test system is kainic acid-induced seizures. The experiment is described as follows: Kainic acid-induced EEG seizures, compound 1 given intraperitoneally (Example 2). The format is in vivo, rats. Here is the method: An experimental model of seizures in rats was induced by unilateral microinjection of kainic acid (40 ng in 0.5 μL) in the dorsal hippocampus of freely-moving rats using chronically-implanted cannulae. […] EEG seizures were recorded using chronically-implanted hippocampal electrodes. […] See, Example 4, where a higher dose of compound 2 produced statistically significant effects.

The test system of the next experiment is IL-1β. Briefly: Western blot of IL-1β in hippocampal homogenates after kainate seizures. It is filed as in vivo, rats. Particulars: 25 μg/4 μL icv 45 and 10 min before kainic acid 40 ng, 90 min after seizures. The text has this: See Example 1 and Example 6.
The test system of a further experiment is seizures. Briefly: Rodent seizure model, general statements on anti-convulsant activity. Particulars: in vivo. The text has this:
The examples provided herein involve an rodent seizure model that is recognized as a good model of human epilepsy and convulsions disorders.

The test system of another experiment is rheumatoid arthritis. The following applies: Pavelka et al. 2002, 285 patient PHII trial; cited from earlier work.
Experiment [3] has as its system kainic acid-induced seizures. The experiment is described as follows: Effect of ibuprofen on kainic acid-induced EEG seizures (Example 5). It is filed as in vivo, Rats. Particulars: for Status Epilepticus (time in status epilepticus) / Onset / No. of Seizures / Time in Seizures: 50 mg/kg. As to the method: EEG seizures were induced in adult male Sprague-Dawley rats by intrahippocampal injection of 40 ng kainic acid (KA) using a chronically-implanted cannula. EEG seizures were recorded using chronically-implanted hippocampal electrodes. Ictal and interictal epileptic activity was quantified quantified by EEG analysis based on the following parameters: 1) the time to onset of the first ictal episode, 2) the number of ictal episodes during the 3 hours of recording, and 3) the time spent in ictal activity reckoned by adding together the duration of each ictal event. Compound 2 or its vehicle were injected intraperitoneally for 3 consecutive days (50-200 mg/kg). The 4th day, rats received compound 2, 45 and 10 min before the intrahippocampal injection of 40 ng in 0.5 μl kainic acid.
The effect of ibuprofen on seizures was also examined using the methods described in Example 4. Rats received ibuprofen (50 mg/kg, i.p.) 60 min. before unilateral intrahippocampal injection of […] in 0.5 μl kainic acid. Controls (vehicle) received saline *p<0.05 vs. vehicle by Student's t-test. Seizures were analyzed and quantified by EEG. Status epilepticus represents continuous seizure activity lasting more than 30 min. consecutively.

Setting [4] is: individual rats, 30 mg/kg intraperitoneally, 45 and 10 min before 40 ng kainic acid, 30 mg/kg.
The mark [5] stands for this setting: individual rats, i.p. 60 min. before kainic acid.

The structures appear in SMILES notation. Where “and” joins values, the source holds several entries; their conditions need not be identical. Equal values may be shown once. Entries after “also recorded” stand apart in the source; their conditions may differ.

For the compound `CCO[C@@H]1OC(=O)C[C@@H]1NC(=O)[C@@H]1CCCN2C(=O)CC[C@H](NC(=O)c3nccc4ccccc34)C(=O)N12` [Compound 1], the “Time in ictal activity” value in experiment [1] (45 and 10 min before 40 ng kainic acid) is 36.0 min (2×) and 30.0 min and 42.0 min (2×) and 34.0 min and 41.0 min; in experiment [2] (Mean ± SE, 30 mg/kg intraperitoneally, vehicle 36.6 ± 6.9), 25.6 ± 2.8 min; in experiment [2] (setting [4]), 9 min and 32 min and 27 min and 20 min and 34 min and 25 min and 30 min and 28 min. The “ONSET (time to onset of the first ictal episode)” value in experiment [1] (45 and 10 min before 40 ng kainic acid in left hippocampus) is 15.0 min and 20.0 min and 14.0 min (2×) and 18.0 min and 13.6 min and 9.0 min and 12.0 min; in experiment [2] (setting [4]) it was 10.5 min and 12 min and 14 min and 9 min (2×) and 23 min and 13 min and 11 min. Moreover, the “No. of ictal episodes” value is 28 and 29 and 30 (3×) and 37 and 31 and 33 in experiment [1] (45 and 10 min before 40 ng kainic acid, 3 hours of recording); 20.5 ± 2.3 in experiment [2] (Mean ± SE, 30 mg/kg intraperitoneally, vehicle 20.8 ± 2.5); 8 and 23 (2×) and 29 and 17 and 25 (2×) and 16 in experiment [2] (individual rats, 30 mg/kg intraperitoneally, 45 and 10 min before 40 ng kainic acid, 3 hours of recording, 30 mg/kg). The “reduction of the total time spent in ictal activity” value in experiment [2] (30 mg/kg intraperitoneally, vs vehicle, did not reach statistical significance) is −30%. Besides, in experiment [2] (intraperitoneal (peripheral) route), the “seizure inhibition / anti-convulsant activity” value was “inhibit seizures; also recorded: have anti-convulsant activity when administered peripherally”. Also, the “mature active 17 kD IL-1β in hippocampus” value in the experiment with IL-1β is reported as “blocked the seizure-induced production; also recorded: reduced the formation mature active 17 kD IL-1β”. For the same compound, the “anti-convulsant activity in the rodent seizure model” value in the experiment on seizures is given as “as effective as high doses of either phenytoin or carbamazepine”. Besides, the “anti-inflammatory activity in rheumatoid arthritis patients” value in the experiment on rheumatoid arthritis is “anti-inflammatory activity”.
In the case of `O=C1NC(=O)C(c2ccccc2)(c2ccccc2)N1` [phenytoin], the “anti-convulsant activity in the rodent seizure model” value in the experiment with seizures is reported as “exhibit anti-convulsant activity”.
On to `CC(C)Cc1ccc(C(C)C(=O)O)cc1` (stereo not shown) [Ibuprofen], for which the “Status Epilepticus (time in status epilepticus)” value was 74.4 ± 2.6 in experiment [3] (Mean ± SE of (5) rats, i.p., vehicle —); “increased the time in status epilepticus” in experiment [3] (Mean ± SE of (5) rats, i.p., vehicle —, listed as ibuprofen); 75 and 66.6 and 80 (2×) and 70 in experiment [3] (individual rats, i.p., continuous seizure activity lasting more than 30 min., all vehicle rats —). Also, the Onset in experiment [3] (Mean ± SE, i.p., vehicle 13.2 ± 2.1) was 13.0 ± 1.7 min; in experiment [3] (individual rats, i.p. 60 min. before intrahippocampal 40 μg in 0.5 μl kainic acid), 14.4 min and 7.9 min and 11.0 min and 12.3 min and 13.3 min and 21.4 min and 10.0 min. The “No. of Seizures” value in experiment [3] (Mean ± SE, i.p., vehicle 16.6 ± 1.0) is 11.7 ± 1.0; in experiment [3] (setting [5]), 13 (2×) and 10 (2×) and 12 and 16 and 8. Further, the “Time in Seizures” value in experiment [3] (Mean ± SE, i.p., vehicle 21.1 ± 1.1) was 10.8 ± 0.6 min; in experiment [3] (setting [5]), 13.0 min and 8.4 min and 11.0 min and 12.5 min and 11.2 min and 9.8 min and 9.4 min. The “seizure activity compared to vehicle” value in experiment [3] (intraperitoneal route) is “increased the seizure activity compared to vehicle”.
With `NC(=O)N1c2ccccc2C=Cc2ccccc21` [carbamazepine], the “anti-convulsant activity in the rodent seizure model” value in the experiment on seizures is given as “exhibit anti-convulsant activity”.
